# Literature values in EP3932402A1, “ADAM17 INHIBITORS FOR USE IN THE PREVENTION AND/OR TREATMENT OF COVID-19” (Max-Delbrück-Centrum für Molekulare Medizin in der …, priority 2020, dated 2022).
# Columns and labels:
# [1] = molecular target: T1, ADAM17 (Homo sapiens, UniProt P78536); conditions: Moss et al., 2008
# T1 construct: host or cells: patients (endogenous enzyme)
# [2] = tested on: ADAM17, ADAM10; conditions: in combination with trastuzumab; Newton et al
# T1 sequence (P78536 215-824): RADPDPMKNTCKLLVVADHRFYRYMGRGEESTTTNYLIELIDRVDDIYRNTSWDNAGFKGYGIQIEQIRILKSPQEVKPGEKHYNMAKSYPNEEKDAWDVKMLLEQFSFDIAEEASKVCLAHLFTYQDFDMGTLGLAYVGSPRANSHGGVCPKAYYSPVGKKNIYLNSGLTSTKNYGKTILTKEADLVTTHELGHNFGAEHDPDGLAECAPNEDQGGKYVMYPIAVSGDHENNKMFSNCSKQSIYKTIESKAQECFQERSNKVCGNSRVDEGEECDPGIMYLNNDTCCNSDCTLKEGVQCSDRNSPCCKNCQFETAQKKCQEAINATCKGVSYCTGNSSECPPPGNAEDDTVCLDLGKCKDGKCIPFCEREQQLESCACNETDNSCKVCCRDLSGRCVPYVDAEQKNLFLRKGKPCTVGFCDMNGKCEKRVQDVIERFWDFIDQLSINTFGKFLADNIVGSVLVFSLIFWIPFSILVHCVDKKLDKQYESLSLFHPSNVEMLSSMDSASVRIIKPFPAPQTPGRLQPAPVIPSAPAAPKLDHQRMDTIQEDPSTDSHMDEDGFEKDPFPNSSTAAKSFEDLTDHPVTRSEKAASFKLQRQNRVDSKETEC
SMILES,reason for discontinued development [1],proof of concept in sepsis and rheumatoid arthritis ([1]; clinical Phase II),HER2 cleavage [2],clinical response rate [2],pro-coagulant effects (adult patients),"deep venous thrombosis, incidence (solid tumors and breast cancer)",dose limiting toxicity (solid tumors and breast cancer),severity of adverse effects (solid tumors and breast cancer)
"CON(Cc1ccc(F)cc1)C(=O)C=C1OC(C)(C)OC1=O [BMS-561392, Acetamide, 2-(2,2-dimethyl-5-oxo-1,3-dioxolan-4-ylidene)-N-((4-fluorophenyl)methyl)-N-methoxy-]",concerns over liver toxicity,beneficial effects,–,–,–,–,–,–
"COC(=O)N1CC2(CC2)C[C@H](C(=O)NO)[C@H]1C(=O)N1CCN(c2ccccc2)CC1 [INCB7839, methyl (6S,7S)-7-(hydroxycarbamoyl)-6-(4-phenylpiperazine-1-carbonyl)-5-azaspiro[2.5]octane-5-carboxylate]",–,–,markedly reduced,markedly reduced,observed in some adult patients,9/41,deep venous thrombosis,mild to moderate
